Experimental data: patent publication US8349870B2 (priority 2008, dated 2013)
Like-named read-outs stand apart in the source and are kept apart here.

Assays:
Type in all cases: in vivo
Plasmopara viticola = assay: Test A: grape downy mildew, spray after inoculation, visual disease rating (% disease control); settings: 100 = 100% disease control, 0 = no control
Source text: General protocol for preparing test suspensions for Test A-C: The test compounds were first dissolved in acetone in an amount equal to 3% of the final volume and then suspended at the desired concentration (in ppm) in acetone and purified water (50/50 mix by volume) containing 250 ppm of the surfactant Trem® 014 (polyhydric alcohol esters). The resulting test suspensions were then used in Tests A-C. Spraying a 200 ppm test suspension to the point of run-off on the test plants was equivalent to a rate of 500 g/ha.
Grape seedlings were inoculated with a spore suspension of Plasmopara viticola (the causal agent of grape downy mildew) and incubated in a saturated atmosphere at 20° C. for 24 h. After a short drying period, the test suspension was sprayed to the point of run-off on the grape seedlings, which were then moved to a growth chamber at 20° C. for 5 days, after which time the grape seedling were placed back into a saturated atmosphere at 20° C. for 24 h. Upon removal, visual disease ratings were made.
Results for Tests A-C are given in Table A. In the table, a rating of 100 indicates 100% disease control and a rating of 0 indicates no disease control (relative to the controls). A dash (-) indicates no test results, “*” indicates compound was tested at 40 ppm and “**” indicates compound was tested at 10 ppm.

Phytophthora infestans [1] = settings: tomato late blight, sprayed 17 h after inoculation
Phytophthora infestans [2] = settings: tomato late blight, sprayed the day before inoculation
[3] = Cmpd No. unmarked, rate not stated in table (b1197 mentions a 200 ppm test suspension)

Compound	Test A rating (% disease control) (Plasmopara viticola; "*" compound tested at 40 ppm) [%]	Test C rating (% disease control) (Phytophthora infestans [1]; "*" compound tested at 40 ppm) [%]	Test B rating (% disease control) (Phytophthora infestans [2]; "*" compound tested at 40 ppm) [%]	further results
CC(C)(C)NC(=O)N1CCC(c2nc(C3=NOC(c4ccccc4)C3)cs2)CC1 (stereo not shown) [compound 16]				Test A rating (% disease control) (Plasmopara viticola; [3]): 86%; Test C rating (% disease control) (Phytophthora infestans [1]; [3]): 95%; Test B rating (% disease control) (Phytophthora infestans [2]; [3]): 100%
O=C(CCOCC(F)(F)F)N1CCC(c2nc(C3=NOC(c4c(F)cccc4F)C3)cs2)CC1 (stereo not shown) [compound 77]				Test A rating (% disease control) (Plasmopara viticola; "**" compound tested at 10 ppm): 100%; Test C rating (% disease control) (Phytophthora infestans [1]; "**" compound tested at 10 ppm): 99%; Test B rating (% disease control) (Phytophthora infestans [2]; "**" compound tested at 10 ppm): 100%
CCOC(=Nc1cc(C)ccc1C)N1CCC(c2nc(C3=NOC(c4ccccc4)C3)cs2)CC1 (stereo not shown) [compound 29]	92	80	99	
CC(C)CC(=O)C(=O)N1CCC(c2nc(C3=NOC(c4c(F)cccc4F)C3)cs2)CC1 (stereo not shown) [compound 69]	99	64	84	
O=C(COCC(F)(F)F)N1CCC(c2nc(C3=NOC(c4c(F)cccc4F)C3)cs2)CC1 (stereo not shown) [compound 74]				Test A rating (% disease control) (Plasmopara viticola; "**" compound tested at 10 ppm): 100%; Test C rating (% disease control) (Phytophthora infestans [1]; "**" compound tested at 10 ppm): 97%; Test B rating (% disease control) (Phytophthora infestans [2]; "**" compound tested at 10 ppm): 10%
CCCCCCC(O)C(=O)N1CCC(c2nc(C3=NOC(c4c(F)cccc4F)C3)cs2)CC1 (stereo not shown) [compound 61]		47	100	
O=C(CC1CCCC(C(F)(F)F)C1)N1CCC(c2nc(C3=NOC(c4c(F)cccc4F)C3)cs2)CC1 (stereo not shown) [compound 76]	66	0	67	
CCN(CC)C(=O)N1CCC(c2nc(C3=NOC(c4ccccc4)C3)cs2)CC1 (stereo not shown) [compound 12]				Test A rating (% disease control) (Plasmopara viticola; [3]): 8%; Test C rating (% disease control) (Phytophthora infestans [1]; [3]): 0%; Test B rating (% disease control) (Phytophthora infestans [2]; [3]): 40%
Cc1ccc(C)c(N=C(C#N)N2CCC(c3nc(C4=NOC(c5ccccc5)C4)cs3)CC2)c1 (stereo not shown) [compound 32]	31	0	58	
CS(=O)(=O)CC(=O)N1CCC(c2nc(C3=NOC(c4c(F)cccc4F)C3)cs2)CC1 (stereo not shown) [compound 62]	99	95	99	
CC(=O)NC(=Nc1cc(C)ccc1C)N1CCC(c2nc(C3=NOC(c4ccccc4)C3)cs2)CC1 (stereo not shown) [compound 27]	4	58	99	
CONC(=Nc1cc(C)ccc1C)N1CCC(c2nc(C3=NOC(c4c(F)cccc4F)C3)cs2)CC1 (stereo not shown) [compound 34]	100	97	100	
Cc1ccc(C)c(C(=O)C(=O)N2CCC(c3nc(C4=NOC(c5ccccc5F)C4)cs3)CC2)c1 (stereo not shown) [compound 40]	99	98	100	
O=C(C(O)C(F)(F)F)N1CCC(c2nc(C3=NOC(c4c(F)cccc4F)C3)cs2)CC1 (stereo not shown) [compound 53]		95	100	
CCCCC(O)C(=O)N1CCC(c2nc(C3=NOC(c4c(F)cccc4F)C3)cs2)CC1 (stereo not shown) [compound 58]		99	100	
CCC(=O)C(=O)N1CCC(c2nc(C3=NOC(c4c(F)cccc4F)C3)cs2)CC1 (stereo not shown) [compound 66]		99	100	
CC(C)CC(O)C(=O)N1CCC(c2nc(C3=NOC(c4c(F)cccc4F)C3)cs2)CC1 (stereo not shown) [compound 57]		97	100	
